By IC50 is commonly meant the concentration needed to halve the response being measured. What is called Cmax is the maximum level reached in the sampled fluid or tissue. As a reminder, the inhibition in vivo is the percentage by which the read-out fell short of the control. The inhibition is the relative decrease from the control value, in per cent. As a reminder, the ED50 is the dose at which the effect has come halfway, by size or by number of responders. Broadly, the AUC is the area under the concentration-time curve, a measure of exposure.

The values below come from ChEMBL document CHEMBL1139777, “Discovery of a highly potent series of oxazole-based phosphodiesterase 4 inhibitors” (Bioorg Med Chem Lett, 2007).

Series [1] addresses cAMP and cAMP-inhibited cGMP 3',5'-cyclic phosphodiesterase 10A (Homo sapiens, UniProt Q9Y233). The series can be described thus: Inhibition of PDE10.
The target in series [2] is Dual 3',5'-cyclic-AMP and -GMP phosphodiesterase 11A (Homo sapiens, UniProt Q9HCR9). The series can be described thus: Inhibition of PDE11.
Sequence of Dual 3',5'-cyclic-AMP and -GMP phosphodiesterase 11A (Q9HCR9 whole entry): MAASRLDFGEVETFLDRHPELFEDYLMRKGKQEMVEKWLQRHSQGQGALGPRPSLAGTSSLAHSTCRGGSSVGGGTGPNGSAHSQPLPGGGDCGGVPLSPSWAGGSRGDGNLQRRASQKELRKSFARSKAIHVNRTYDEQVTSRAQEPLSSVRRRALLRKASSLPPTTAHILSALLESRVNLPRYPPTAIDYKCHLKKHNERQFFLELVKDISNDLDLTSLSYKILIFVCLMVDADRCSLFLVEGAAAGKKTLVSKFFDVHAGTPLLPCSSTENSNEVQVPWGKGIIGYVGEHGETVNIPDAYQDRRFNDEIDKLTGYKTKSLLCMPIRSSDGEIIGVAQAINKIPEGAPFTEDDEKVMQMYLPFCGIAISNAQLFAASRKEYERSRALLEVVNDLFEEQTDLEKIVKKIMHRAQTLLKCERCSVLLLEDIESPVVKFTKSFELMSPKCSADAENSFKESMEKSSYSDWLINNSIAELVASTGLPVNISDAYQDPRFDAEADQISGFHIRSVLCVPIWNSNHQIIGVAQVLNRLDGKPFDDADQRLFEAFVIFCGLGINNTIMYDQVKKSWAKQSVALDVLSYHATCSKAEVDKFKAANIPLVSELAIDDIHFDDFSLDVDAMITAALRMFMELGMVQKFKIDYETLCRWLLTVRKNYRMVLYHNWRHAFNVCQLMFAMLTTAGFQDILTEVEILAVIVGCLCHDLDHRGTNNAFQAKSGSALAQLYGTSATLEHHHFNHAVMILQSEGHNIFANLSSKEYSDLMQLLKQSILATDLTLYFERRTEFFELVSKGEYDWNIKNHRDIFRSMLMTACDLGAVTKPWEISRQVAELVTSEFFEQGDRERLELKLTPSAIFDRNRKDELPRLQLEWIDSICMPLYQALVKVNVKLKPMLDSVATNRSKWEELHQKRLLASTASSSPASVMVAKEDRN
Series [3] deals with T1, 3',5'-cyclic-AMP phosphodiesterase 4B (Homo sapiens, UniProt Q07343). The series can be described thus: Inhibition of PDE4B.
T1 sequence (Q07343 whole entry): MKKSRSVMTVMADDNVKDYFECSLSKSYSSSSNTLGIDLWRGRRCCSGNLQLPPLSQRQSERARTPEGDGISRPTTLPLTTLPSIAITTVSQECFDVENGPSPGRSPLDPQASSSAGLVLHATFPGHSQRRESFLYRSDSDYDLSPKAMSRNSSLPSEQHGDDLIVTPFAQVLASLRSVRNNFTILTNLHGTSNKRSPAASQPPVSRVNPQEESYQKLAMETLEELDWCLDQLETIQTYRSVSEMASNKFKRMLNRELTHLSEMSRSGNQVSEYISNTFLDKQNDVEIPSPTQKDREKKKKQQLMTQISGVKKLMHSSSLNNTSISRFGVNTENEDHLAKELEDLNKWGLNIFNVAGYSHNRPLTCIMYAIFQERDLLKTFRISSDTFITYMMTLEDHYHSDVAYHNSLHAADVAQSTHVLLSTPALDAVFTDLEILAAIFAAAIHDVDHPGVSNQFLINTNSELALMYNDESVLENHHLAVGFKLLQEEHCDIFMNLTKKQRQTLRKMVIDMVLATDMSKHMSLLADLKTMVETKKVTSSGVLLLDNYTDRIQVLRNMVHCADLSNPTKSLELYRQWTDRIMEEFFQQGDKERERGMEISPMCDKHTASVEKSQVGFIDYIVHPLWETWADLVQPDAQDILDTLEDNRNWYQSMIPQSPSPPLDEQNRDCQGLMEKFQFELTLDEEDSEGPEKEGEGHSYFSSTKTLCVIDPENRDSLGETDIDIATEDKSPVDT
A short description of series [4]: Cmax in rat at 10 mg/kg, po. Format: ADME, organism-based. On the set-up: dose 10 mg/kg, route oral. To be noted: in vivo.
Series [5] relates to Rattus norvegicus. The series can be described thus: Antiinflammatory activity in rat lipopolysaccharide-induced pulmonary inflammation model assessed as inhibition of polymorphonuclear cells at 1 mg/kg, po. Format: functional.
The target of series [6] is T1, 3',5'-cyclic-AMP phosphodiesterase 4B. Put plainly: Inhibition of PDE4B at 1 uM.
Series [7] deals with Rattus norvegicus. Put plainly: Antiinflammatory activity in rat lipopolysaccharide-induced pulmonary inflammation model assessed as inhibition of polymorphonuclear cells at 3 mg/kg, po. Format: functional.
The species named for series [8] is Homo sapiens. The series can be described thus: Selectivity for PDE4B over PDE10.
For series [9], the species on record is Homo sapiens. The series can be described thus: Selectivity for PDE4B over PDE11.
Series [10] has as its system Rattus norvegicus. The series can be described thus: Antiinflammatory activity in po dosed rat lipopolysaccharide-induced pulmonary inflammation model assessed as inhibition of polymorphonuclear cells. Format: functional.
Another series concerns Cynomolgus monkey. Put plainly: AUC in cynomolgus monkey at 30 mg/kg, po. Format: ADME, organism-based, Macaca fascicularis, Plasma. On the set-up: dose 30 mg/kg, route oral. Conditions: in vivo.
Series [11] can be described thus: Cmax in cynomolgus monkey at 30 mg/kg, po. Conditions: in vivo. Format: ADME, organism-based, Macaca fascicularis. The arrangement: dose 30 mg/kg, route oral.

Sequence of cAMP and cAMP-inhibited cGMP 3',5'-cyclic phosphodiesterase 10A (Q9Y233 whole entry): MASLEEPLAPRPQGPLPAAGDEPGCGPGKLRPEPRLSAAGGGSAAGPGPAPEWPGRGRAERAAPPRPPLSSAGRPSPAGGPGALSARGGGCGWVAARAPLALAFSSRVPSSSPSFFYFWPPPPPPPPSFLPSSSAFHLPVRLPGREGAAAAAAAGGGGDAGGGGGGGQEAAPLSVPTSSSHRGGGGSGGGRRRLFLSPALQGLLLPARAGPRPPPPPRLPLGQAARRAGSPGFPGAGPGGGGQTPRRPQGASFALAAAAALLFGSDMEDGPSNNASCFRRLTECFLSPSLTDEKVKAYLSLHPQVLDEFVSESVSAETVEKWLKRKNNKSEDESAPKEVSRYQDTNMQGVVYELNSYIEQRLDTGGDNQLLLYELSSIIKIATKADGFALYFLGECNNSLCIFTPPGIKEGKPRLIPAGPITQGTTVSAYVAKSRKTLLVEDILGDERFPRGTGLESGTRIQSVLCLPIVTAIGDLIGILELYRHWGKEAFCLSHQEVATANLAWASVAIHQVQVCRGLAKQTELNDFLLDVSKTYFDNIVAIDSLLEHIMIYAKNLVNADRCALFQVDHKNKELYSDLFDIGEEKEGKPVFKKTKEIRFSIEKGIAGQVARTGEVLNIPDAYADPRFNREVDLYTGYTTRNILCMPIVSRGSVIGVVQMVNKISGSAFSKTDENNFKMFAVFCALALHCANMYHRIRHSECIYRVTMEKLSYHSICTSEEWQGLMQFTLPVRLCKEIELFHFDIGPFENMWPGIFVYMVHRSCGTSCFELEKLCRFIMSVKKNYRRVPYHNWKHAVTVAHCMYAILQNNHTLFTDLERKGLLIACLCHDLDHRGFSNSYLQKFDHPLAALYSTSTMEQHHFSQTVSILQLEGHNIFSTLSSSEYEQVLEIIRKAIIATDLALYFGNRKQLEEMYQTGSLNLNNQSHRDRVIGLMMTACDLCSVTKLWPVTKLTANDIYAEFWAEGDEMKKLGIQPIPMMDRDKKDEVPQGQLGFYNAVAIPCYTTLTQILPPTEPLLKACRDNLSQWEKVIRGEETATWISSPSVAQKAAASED

`COc1ccc(-c2nc(C(N)=O)c(CN)o2)c2ccc(C(F)(F)F)nc12`: the values for the IC50 in [1], in series [2] and in [3] were 2800 nM, 7600 nM and 24 nM, respectively.

On to `COc1ccc(-c2nc(C(N)=O)c(C)o2)c2ccc(C(F)(F)F)nc12`, for which, in series [3], inhibition was half-maximal at 88 nM (IC50).

In the case of `CO/N=C(\c1ccccn1)C1CCN(C(=O)c2nc(-c3ccc(OC)c4nc(C(F)(F)F)ccc34)oc2CN)CC1`, the IC50 in series [1] came out at 120 nM; in series [2] it was 1500 nM; in [3], 1.6 nM. For the same compound, the Cmax in series [4] amounted to 610 nM. In addition, in the series with Rattus norvegicus [5], the inhibition in vivo at 1 mg/kg is 45%.

In series [6], `COc1ccc(-c2nc(C(N)=O)c(CNC3CCCC3)o2)c2ccc(C(F)(F)F)nc12` had an inhibition of 39%.

Compound `COc1ccc(-c2nc(C(=O)O)c(C)o2)c2ccc(C(F)(F)F)nc12` gave an IC50 in series [3] of 390 nM.

With `COc1ccc(-c2nc(C(=O)N3CCN(C(=O)OC(C)(C)C)CC3)c(CN)o2)c2ccc(C(F)(F)F)nc12`, the IC50 in [1] was 1100 nM; in series [2], 600 nM; in series [3], 4.3 nM. Besides, the inhibition in vivo at 3 mg/kg with Rattus norvegicus [7] was 56%. This compound also came in with a Cmax in series [4] of 1400 nM.

In turn, `COc1ccc(-c2nc(C(=O)N3CCCCC3)c(CN)o2)c2ccc(C(F)(F)F)nc12` came in with an IC50 in [3] of 49 nM.

Consider `COc1ccc(-c2nc(C(=O)N3CCN(S(=O)(=O)N(C)C)CC3)c(CN)o2)c2ccc(C(F)(F)F)nc12`, for which the Selectivity ratio in the series listed under Homo sapiens [8] and in the series listed under Homo sapiens [9] was 1000 throughout. The IC50 is 1700 nM in series [1], 3300 nM in [2] and 1.2 nM in series [3].

In the case of `COc1ccc(-c2nc(C(=O)N3CCN(C(=O)c4cc(C)[nH]n4)CC3)c(CN)o2)c2ccc(C(F)(F)F)nc12`, the Selectivity ratio in the series listed under Homo sapiens [8] and in the series filed under Homo sapiens [9] was 1000 in each case. In addition, the IC50 was found to be 1500 nM in series [1], 1000 nM in series [2] and 0.5 nM in series [3].

Consider `COc1ccc(-c2nc(C(=O)N3CCC4(CC3)C(=O)NCN4c3ccccc3)c(CN)o2)c2ccc(C(F)(F)F)nc12`, for which the Selectivity ratio in the series listed under Homo sapiens [8] was 20; in the series filed under Homo sapiens [9] it was 130. Further, the values for the IC50 in series [1], in [2] and in [3] were 20 nM, 130 nM and 1 nM, respectively.

For the compound `COc1ccc(C(=O)Nc2c(Cl)cncc2Cl)c2ccc(C(F)(F)F)nc12`, the IC50 in series [1] is over 10000 nM; in series [2] it was 7300 nM; in series [3], 20 nM.

Take `COc1cc(OC)nc(N2CCN(C(=O)c3nc(-c4ccc(OC)c5nc(C(F)(F)F)ccc45)oc3CN)CC2)n1`: the ED50 in the series with Rattus norvegicus [10] stood at 2 mg/kg. Moreover, the IC50 in [1] was 760 nM; in [2], 970 nM; in [3], 2.2 nM. The compound further registered a Cmax in [4] of 230 nM.

For the compound `COc1ccc(-c2nc(CN)c(C)o2)c2ccc(C(F)(F)F)nc12`, the IC50 in series [3] turned out to be 80 nM.

In turn, `COc1ccc(-c2nc(C(N)=O)c(CN3CCCC3)o2)c2ccc(C(F)(F)F)nc12` registered an inhibition in series [6] of 31%.

Take `COc1ccc(C(=O)Nc2c(Cl)c[n+]([O-])cc2Cl)c2ccc(C(F)(F)F)nc12` [SCH-351591]: the IC50 in series [1] is over 10000 nM; in series [2] it was over 10000 nM; in series [3], 60 nM.

In the case of `COc1ccc(-c2nc(C=O)c(C)o2)c2ccc(C(F)(F)F)nc12`, in series [3], the IC50 turned out to be 310 nM.

In [3], `COc1ccc(-c2nc(CCl)c(C)o2)c2ccc(C(F)(F)F)nc12` had an IC50 of 470 nM.

In the case of `CCc1coc(-c2ccc(OC)c3nc(C(F)(F)F)ccc23)n1`, the IC50 in series [3] was found to be 670 nM.

`COc1ccc(-c2nc(C(N)=O)c(CN(C)C)o2)c2ccc(C(F)(F)F)nc12`: the inhibition in [6] was 40%.

Compound `COc1ccc(-c2nc(C)co2)c2ccc(C(F)(F)F)nc12` showed an IC50 in [3] of 350 nM.

Turning to `COc1ccc(-c2nc(C(=O)N3CCCC3)c(CN)o2)c2ccc(C(F)(F)F)nc12`, half-maximal inhibition in [3] (IC50) was put at 17 nM.

On to `COc1ccc(-c2nc(C(=O)N3CCC(O)(c4ccccc4)CC3)c(CN)o2)c2ccc(C(F)(F)F)nc12`, for which the ED50 in the series on Rattus norvegicus [10] turned out to be 2 mg/kg. Further, the figures for the IC50 in [1], in [2] and in [3] were 600 nM, 500 nM and 2 nM, respectively. For the same compound, the peak level in series [4] (Cmax) was 170 nM.

With `CNCc1oc(-c2ccc(OC)c3nc(C(F)(F)F)ccc23)nc1C(N)=O`, the IC50 in [3] amounted to 580 nM.

`COc1ccc(-c2nc(C(N)=O)c(CN3CCCCC3)o2)c2ccc(C(F)(F)F)nc12` came in with an inhibition in series [6] of 27%.

Compound `CCN(CC)Cc1oc(-c2ccc(OC)c3nc(C(F)(F)F)ccc23)nc1C(N)=O` displayed an inhibition in [6] of 21%.

For the compound `COc1ccc(-c2nc(CO)c(C)o2)c2ccc(C(F)(F)F)nc12`, the IC50 in series [3] stood at 470 nM.

The compound `COc1ccc(-c2nc(C(=O)O)c(CN)o2)c2ccc(C(F)(F)F)nc12` gave an IC50 in series [3] of 53 nM.

As for `COc1ccc(-c2nc(C(=O)N3CC[C@@H](NC(=O)OC(C)(C)C)C3)c(CN)o2)c2ccc(C(F)(F)F)nc12`, the ED50 with Rattus norvegicus [10] was 0.2 mg/kg. In addition, the IC50 was 130 nM in [1], 820 nM in series [2] and 1.4 nM in series [3]. This compound also yielded a Cmax in [4] of 610 nM.

For the compound `COc1ccc(-c2nc(C(=O)N3CCN(C(=O)c4ccccn4)CC3)c(CN)o2)c2ccc(C(F)(F)F)nc12`, the Selectivity ratio in the series listed under Homo sapiens [8] and in the series listed under Homo sapiens [9] was 1000 each time. The ED50 in the series with Rattus norvegicus [10] stood at 0.6 mg/kg. The IC50 in [1] worked out at 1900 nM; in [2], 2100 nM; in series [3], 1 nM. The compound further registered a Cmax in series [4] of 730 nM.

Regarding `COc1ccc(-c2nc(CN)c(C(N)=O)o2)c2ccc(C(F)(F)F)nc12`, in series [3], the IC50 amounted to 76 nM.

As for `COc1ccc(-c2nc(C(=O)N3CCC3)c(CN)o2)c2ccc(C(F)(F)F)nc12`, the IC50 in [3] was found to be 31 nM.

In the case of `CCN(CC)C(=O)c1nc(-c2ccc(OC)c3nc(C(F)(F)F)ccc23)oc1CN`, in series [3], the IC50 came out at 62 nM.

The compound `CNC(=O)c1nc(-c2ccc(OC)c3nc(C(F)(F)F)ccc23)oc1CN` came in with an IC50 in series [3] of 110 nM.

Take `COc1ccc(-c2nc(C(=O)N3CCN(c4ncccn4)CC3)c(CN)o2)c2ccc(C(F)(F)F)nc12`: the values for the IC50 in series [1], in series [2] and in [3] were 430 nM, 2000 nM and 19 nM, respectively. The inhibition in vivo at 3 mg/kg with Rattus norvegicus [7] was determined as 64%. Also, the AUC with Cynomolgus monkey came out at 130 µM·h. Also, the Cmax is 13000 nM in series [11] and 9500 nM in [4].
